The test system of one series is E. coli. Put plainly: Bacteria competition assay with 3H-maltose. It is filed as cell-based. To be noted: test compound 1 mM, 1 hr at 37° C., then 3H-maltose 30 min. Here is the method:
A competition binding assay between the synthesized derivatives and ^3H-maltose that is taken up in bacteria by the ABC transporter, was conducted.
Aliquots of 10^8 colony forming units (CFU) of E. coli were first incubated with test compounds (1 mM) for 1 hr at 37° C. After the first incubation, the bacteria culture was centrifuged at 10,000 rpm for 5 min and pellet washed with 1×HBSS three times. Pellets were suspended in a solution of ^3H-maltose (1 μCi in 200 μL HBSS (1×); American Radiolabeled Chemicals, Inc., USA) and incubated for 30 min at 37° C. Aliquots were centrifuged and washed with 1×HBSS three times before lysing in a bacterial lysis buffer (BugBuster, EMD, Billerica Mass. USA). Activity in bacteria lysates was then counted in a […] and protein concentration determined using a bicinchoninic acid (BCA) assay (Pierce, Thermo Fisher Scientific). Test compounds included maltose as a positive control, azide-1-maltotriose/maltohexose and Cy7-1-maltotriose/maltohexose. In addition, aliquots incubated with only ^3H-maltose were also included to assess normal uptake. Results are shown as counts per minute (cpm) normalized to protein content (μg of protein) per sample (n=3 per study).

A short description of the next series: Stability in PBS. The series is classed as physicochemical. The settings on record: 37° C., up to 24 hr. The protocol: Compound 3a or 3b (100 μM) was incubated in either PBS (1×), murine, human, or rat plasma at 37° C. for up to 24 h. At each time point (0, 2, 4, 10 and 24 h), a 100 μL aliquot of the mixture was taken and added to an ice-cold acetonitrile solution (200 μL) and vortexed for 10 seconds. Samples were then centrifuged and the supernatant analyzed on the analytical HPLC column (HPLC method). […] Monitoring was at 750 nm and the area of any observed peak was assessed in each HPLC chromatogram. Bar plot representation of the compound stability is shown as % intact where

A further series relates to S. aureus-infected wound. Put plainly: Fluorescence and bioluminescence imaging in S. aureus wound-infection murine model. To be noted: treated group, vancomycin for 7 days. It is filed as in vivo, mice. Here is the method: Female CD1 or SKH1 elite mice, 6-8 weeks old were anesthetized by isoflurane inhalation (2-3%). A small wound on the upper or lower back of the mice was formed using a sharp pair of scissors. 10^8 CFU, 10^6 CFU, or 10^4 CFU Staphylococcus aureus in 20 μL saline was inoculated into a small pocket subcutaneously before sealing the wound with Vetbond adhesive (1469SB; 3M).
After subcutaneous inoculation of 10^8 CFU (n=5), 10^6 CFU (n=3) and 10^4 CFU (n=3) of S. aureus in the wound, Cy7-1-maltotriose (5 nmol in 2% DMSO/saline, 100 μL injection) was injected via the tail vein. To insure no other infections occur, a daily dose of kanamycin (800 mg/kg) was given to the mice intramuscularly. Fluorescence and bioluminescence images were then captured at 5 and 20 hr post injection of the probe. Image analysis was conducted using Living Image® software.
Fluorescence and Bioluminescence Imaging: After subcutaneous inoculation of 10^6 CFU (n=9) of kanamycin-resistant S. aureus in the wound, mice were administered kanamycin (800 mg/kg) intramuscularly once daily to insure no other bacterial infections occur. Two days after surgery, Cy7-1-maltotriose (10 nmol in 2% DMSO/saline, 200 μL injection) was injected via the tail vein and bioluminescence and fluorescence imaging were performed at 19, 45, 69, 93 and 144 hrs post injection. […]

Series [1] in a line: Plasma stability, human plasma. The settings on record: 37° C. It is filed as in vitro ADME. Here is the method:
Samples were then centrifuged and the supernatant analyzed on the analytical HPLC column (HPLC method). […] Monitoring was at 750 nm and the area of any observed peak was assessed in each HPLC chromatogram.

In the case of `OC[C@H]1O[C@H](O[C@H]2[C@H](O)[C@@H](O)C(O)O[C@@H]2CO)[C@H](O)[C@@H](O)[C@@H]1O` (mixture of isomers) [maltose], in the series with E. coli, the “3H-maltose uptake in E. coli when pre-incubated with test compound” value (“3H-maltose uptake in E. coli” below) is listed as “significant reduction”.

Turning to `OC[C@H]1O[C@H](O[C@H]2[C@H](O)[C@@H](O)[C@@H](O[C@H]3[C@H](O)[C@@H](O)[C@@H](O[C@H]4[C@H](O)[C@@H](O)[C@@H](O[C@H]5[C@H](O)[C@@H](O)[C@@H](O[C@H]6[C@H](O)[C@@H](O)C(O)O[C@@H]6CO)O[C@@H]5CO)O[C@@H]4CO)O[C@@H]3CO)O[C@@H]2CO)[C@H](O)[C@@H](O)[C@@H]1O` (stereo partly shown) [maltohexose], the “3H-maltose uptake in E. coli” value in the series on E. coli is reported as “significant reduction”. Also, in “Stability in PBS”, the “stability in PBS” value was “stable”.

On to `CN[C@H](CC(C)C)C(=O)N[C@H]1C(=O)N[C@@H](CC(N)=O)C(=O)N[C@H]2C(=O)N[C@H]3C(=O)N[C@H](C(=O)N[C@H](C(=O)O)c4cc(O)cc(O)c4-c4cc3ccc4O)[C@H](O)c3ccc(c(Cl)c3)Oc3cc2cc(c3O[C@@H]2O[C@H](CO)[C@@H](O)[C@H](O)[C@H]2O[C@H]2C[C@](C)(N)[C@H](O)[C@H](C)O2)Oc2ccc(cc2Cl)[C@H]1O` [vancomycin], for which, in the series with S. aureus-infected wound, the “S. aureus infection in wound after treatment (FLI image, confirmed by BLI)” value is “complete disappearance of S. aureus infection”.

In the case of maltotriose, the “3H-maltose uptake in E. coli” value in the series with E. coli is listed as “significant reduction”. Besides, the “degradation in human plasma” value in series [1] is “no degradation”. Besides, the “stability in PBS” value in the series “Stability in PBS” is “stable”.
